Measurements reported in US8008292B2, “Condensed benzamide compounds and inhibitors of vanilloid receptor subtype 1 (VR1) activity” (Japan Tobacco Inc., priority 2004, dated 2011).

Target: T1, human VR1 (Homo sapiens, UniProt Q8NER1)
T1 construct: expressed in transfected cells
Experiment: Inhibition of Ca2+ entry in cells caused by proton, in rat glioma (C6BU1) cells stably expressing human VR1 (Fura 2 fluorescence)
Type: cell-based
Conditions: inhibition of proton-induced Ca2+ entry
Method in brief: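 Fura 2-loaded C6BU1 cells in 20 mM MES buffer pH 6.8 with added Ca2+ were preincubated 10 min with compound (final 1 μM to 0.1 nM, 1% DMSO). Proton stimulation brought pH to 5.5. Fluorescence rise was measured, and IC50 was derived from % inhibition versus DMSO control.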

T1 sequence (Q8NER1 whole entry): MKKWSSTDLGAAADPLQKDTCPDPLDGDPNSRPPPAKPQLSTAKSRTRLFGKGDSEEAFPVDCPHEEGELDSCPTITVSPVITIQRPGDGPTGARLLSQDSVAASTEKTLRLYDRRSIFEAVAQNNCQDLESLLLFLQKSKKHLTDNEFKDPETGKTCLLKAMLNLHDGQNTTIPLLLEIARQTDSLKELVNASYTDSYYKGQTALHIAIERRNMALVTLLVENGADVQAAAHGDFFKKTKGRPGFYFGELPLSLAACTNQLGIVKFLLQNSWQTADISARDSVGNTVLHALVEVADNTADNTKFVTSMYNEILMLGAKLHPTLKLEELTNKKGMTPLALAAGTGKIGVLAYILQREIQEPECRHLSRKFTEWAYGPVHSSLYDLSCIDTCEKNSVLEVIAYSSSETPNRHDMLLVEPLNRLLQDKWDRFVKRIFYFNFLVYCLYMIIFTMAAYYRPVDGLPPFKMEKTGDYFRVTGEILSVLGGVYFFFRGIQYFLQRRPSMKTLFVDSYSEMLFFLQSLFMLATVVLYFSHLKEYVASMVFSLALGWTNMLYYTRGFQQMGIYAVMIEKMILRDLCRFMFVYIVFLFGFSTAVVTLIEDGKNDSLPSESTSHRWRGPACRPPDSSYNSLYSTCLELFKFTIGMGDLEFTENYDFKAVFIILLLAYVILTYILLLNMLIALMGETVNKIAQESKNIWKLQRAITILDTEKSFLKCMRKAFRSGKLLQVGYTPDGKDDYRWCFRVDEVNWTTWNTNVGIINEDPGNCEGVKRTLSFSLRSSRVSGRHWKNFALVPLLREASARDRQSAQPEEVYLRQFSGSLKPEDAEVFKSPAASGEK

SMILES	IC50
COc1ccc(N2CCOc3c(C(=O)Nc4ccc(Cl)cc4)cccc32)cc1 [Example 7-03, N-(4-chlorophenyl)-4-(4-methoxyphenyl)-3,4-dihydro-2H-benzo[1,4]oxazine-8-carboxamide]	< 100 nM
O=C(Nc1ccc(C(F)(F)F)c(F)c1)c1cccc2c1OC[C@H](CO)N2c1ccccc1Cl [Example 7-06]	< 100 nM
COc1ccc(N2c3cccc(C(=O)Nc4ccc(OC(F)(F)F)cc4)c3OC[C@@H]2CO)cc1 [Example 7-08]	< 100 nM
COc1ccc(N2c3cccc(C(=O)Nc4ccc(C(F)(F)F)cc4)c3OC[C@@H]2CO)cc1 [Example 7-09]	< 100 nM
O=C(Nc1ccc(C(F)(F)F)cc1)c1cccc2c1OC[C@H](CO)N2c1ccc(Cl)cc1 [Example 7-10]	< 100 nM
O=C(Nc1ccc(Cl)cc1)c1cccc2c1OC[C@H](CO)N2c1ccc(Cl)cc1 [Example 7-11]	< 100 nM

The next lines start with the values.

IC50	SMILES
< 100 nM	O=C(Nc1ccc(OC(F)(F)F)cc1)c1cccc2c1OC[C@H](CO)N2c1ccccc1Cl [Example 7-04, (S)-4-(2-chlorophenyl)-3-hydroxymethyl-N-(4-trifluoromethoxyphenyl)-3,4-dihydro-2H-benzo[1,4]oxazine-8-carboxamide]
< 100 nM	O=C(Nc1ccc(C(F)(F)F)cc1)c1cccc2c1OC[C@H](CO)N2c1ccccc1Cl [Example 7-05]
< 100 nM	O=C(Nc1ccc(OC(F)(F)F)cc1)c1cccc2c1OC[C@H](CO)N2c1ccc(Cl)cc1 [Example 7-07]
